Measured values: publication PMC9720346, “Suppression of amyloid-β fibril growth by drug-engineered polymorph transformation” (The Journal of Biological Chemistry, 2022)

Columns and labels:
[1] = biological target: T1, Aβ40 fibrils nucleated in the absence of bexarotene (normal fibrils) (Homo sapiens, UniProt P05067); assay: Time-resolved in situ AFM: growth rate of normal Aβ40 fibrils after adding bexarotene; type: biochemical; conditions: 3 μM Aβ40, bexarotene 0.1, 0.5 and 1.0 μM, 27 °C, about 30 measurements per concentration
T1 construct: host or cells: E. coli BL21(DE3)
Procedure: We deposit fibrils preformed in the absence of bexarotene on mica and monitor the growth of the fibril tips along the fibril axis with respect to immobile reference points (Fig. 2B) in Aβ40 solutions with known concentrations. We evaluate the fibril growth rate as the slope of the time correlation of the fibril tip displacement (Fig. 2C) ([41]). […] Fibril growth comprises association of peptide chains to fibril tips.
To prepare samples for AFM growth rate measurements, 2 μl of second-generation normal (or bexarotene) fibrils was added to the fibril growth buffer. Urea (Sigma–Aldrich) was also added to the solution, to a final concentration of 1 M, if needed based on the experiments. The diluted fibril solution then was sonicated (6 W output) for 2 min with 15 s intervals on ice and was kept at 27 °C for at least 15 min to equilibrate the temperature. Then Aβ40 peptides were added to the fibril solution at a desired final concentration, and the total volume of the solution was adjusted to 1 ml. […]
To study the effect of bexarotene on normal and bexarotene fibril growth rates (Figs. 2D and 5D), first, a fibril suspension at 3 μM Aβ40 peptide concentration was prepared as described previously, without bexarotene, and the fibril growth was monitored with AFM in tapping mode for 15 to 30 min. […]

[2] = biological target: T2, Aβ40 peptides (Homo sapiens, UniProt P05067); assay: Complexation of Aβ40 with bexarotene (UV absorbance titration at 280 nm); type: binding; conditions: 156 μM Aβ40 in ammonium acetate titrated with 20 aliquots of 142 μM bexarotene; absorbance at 280 nm vs sum of individual absorbances
T2 construct: host or cells: E. coli BL21(DE3)
Procedure: This addition was repeated 20 times.
Complexation of Aβ40 with bexarotene. To determine the extinction coefficient of bexarotene at 280 nm, we measured the absorbance of bexarotene at 14 gradually decreasing concentrations (Fig. S2A). The stock solution of bexarotene (0.2 mM) was diluted in ammonium acetate to achieve the desired concentrations. Then, the correlation between absorbance and bexarotene concentration was plotted and the extinction coefficient was obtained from the slope of the best linear regression fit (ε280 = 10370 ± 83 M^-1 cm^-1).
This addition was repeated 20 times, and at each step, a spectrum was collected using DU 800 Spectrophotometer (Beckman Coulter).

[3] = biological target: T3, Aβ40 fibrils with structure imposed by bexarotene (bexarotene fibrils) (Homo sapiens, UniProt P05067); assay: Time-resolved in situ AFM: growth rate of bexarotene fibrils after adding bexarotene; type: biochemical; conditions: 3 μM Aβ40, 1 μM bexarotene, 27 °C
T3 construct: host or cells: E. coli BL21(DE3)
Procedure: To prepare samples for AFM growth rate measurements, 2 μl of second-generation normal (or bexarotene) fibrils was added to the fibril growth buffer. Urea (Sigma–Aldrich) was also added to the solution, to a final concentration of 1 M, if needed based on the experiments. The diluted fibril solution then was sonicated (6 W output) for 2 min with 15 s intervals on ice and was kept at 27 °C for at least 15 min to equilibrate the temperature. Then Aβ40 peptides were added to the fibril solution at a desired final concentration, and the total volume of the solution was adjusted to 1 ml.
Multimode atomic force microscope (Nanoscope VIII or IV; Bruker) in tapping mode was used to monitor the growth of fibrils. To collect images, 500 μl of the prepared sample was injected into the AFM liquid cell over freshly cut mica (Ted Pella, Inc) attached to a 15 mm metal disk (Ted Pella, Inc), and to avoid any leakage, an O-ring was inserted firmly to the liquid cell. The temperature in the liquid cell reached equilibrium of 27.0 ± 0.1 °C within 15 min, higher than room temperature (ca. 22 °C), because of heating by the AFM scanner and laser ([69], [70], [71]). Height, amplitude, and phase images were collected in image sizes ranged from 2 μm × 2 μm to 8 μm × 8 μm, and scan rates range between 3 and 3.5 s^−1 in most images. […]

[4] = biological target: T4, Aβ40 (Homo sapiens, UniProt P05067); assay: Thioflavin T (ThT) fluorescence assay of Aβ40 fibrillization; type: biochemical; conditions: 50 μM Aβ40, bexarotene 17 and 50 μM, 35 μM ThT, 40 mM sodium phosphate pH 7.4, 37 °C, ex 442/em 488 nm, 15 h
T4 construct: host or cells: E. coli BL21(DE3)
Procedure: To monitor the evolution of fibrillization and the overall impact of bexarotene, we employed the fluorescence intensity emitted at 488 nm by the dye thioflavin T (ThT) in the presence of Aβ sheets, which is expected to scale the total amyloid mass ([42]).
The stock solution of ThT was prepared by dissolving ThT (Sigma–Aldrich) in ethanol (Decon Labs) and filtering through […] polyethersulfone syringe filter. […] For control experiment, ammonium acetate solution in a volume equivalent to the peptides volume was added to the growth buffer instead of Aβ40 peptides. […] The ThT fluorescence signal was measured at 37 °C (with mixing every 5 min) every 15 min with excitation and emission at 442 and 488 nm, respectively, for a period of 15 h using SpectraMax Gemini EM Microplate Reader (Molecular Devices). The sigmoid curves were obtained by subtracting the […] of the control and normalizing all the data points to their maximum value.
Thioflavin T (ThT) fluorescence assay. […] The concentration was determined by measuring the absorbance at 416 nm using the extinction coefficient of 26.6 mM^-1 cm^-1. […] The ThT fluorescence signal was measured at 37 °C (with mixing every 5 minutes) every 15 minutes with excitation and emission at 442 nm and 488 nm, respectively, for a time period of 15 hours using SpectraMax Gemini EM Microplate Reader (Molecular Devices). […]

[5] = system: Aβ42; conditions: cited from earlier work

T1 sequence (P05067 671-711): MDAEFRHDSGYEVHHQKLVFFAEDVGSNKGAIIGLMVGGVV
T4 sequence (P05067 671-711): as above
T2 sequence (P05067 671-711): as above
T3 sequence (P05067 671-711): as above

SMILES: C=C(c1ccc(C(=O)O)cc1)c1cc2c(cc1C)C(C)(C)CCC2(C)C [bexarotene]
- average growth rate of normal fibrils after adding bexarotene [1]: does not modify the average growth rates
- binding of bexarotene to Aβ40 monomers (complex formation) [2]: does not perceptibly bind
- growth rate of bexarotene fibrils after adding bexarotene [3]: does not inhibit or promote the growth
- initial period of negligible ThT fluorescence (fibril nucleation delay) [4]: suppresses Aβ40 fibril nucleation
- binding of bexarotene to Aβ42 [5]: undetectable binding
